≈ marks a conversion by molar mass, not a printed value. Read-outs that look alike come from different tables or passages of the source. Where a SMILES comes first, the peptide text is derived from it. Where no end group is shown, it is not given here. [ ]: non-standard residue; d: D form. The star is where a group is joined. Decanoyl = CCCCCCCCCC(=O)*
Columns and labels:
Yeast [1] = details: for MIC Average Yeast: 24 h; for TI Yeast, HC50/MIC average: first value of the cell, a single value holds for HC50 and IC50 (400 µM used); for TI Yeast, IC50/MIC average: second value of the cell, HeLa IC50 based
Method: Each inoculum was taken and the cellular concentration was adjusted to 2 × 10^3 CFU/mL in Sabouraud Dextrose Broth (SDB) (Biokar Diagnostics, Cedex, France). Next, 50 µL of these inocula was added to 50 µL of peptide solution in serial 2-fold dilutions. […] The MIC was considered the lowest peptide concentration that inhibited visible growth of each yeast strain. The test was conducted in triplicate.
(§1) The TI is defined as the relationship between the concentration that caused 50% of hemolysis (HC50) or a 50% reduction in HeLa cell viability and the MIC. Thus, higher TI values indicate greater antimicrobial specificity. […] The average MIC for each peptide against different microorganism groups was used to calculate the TI value.

E. faecalis ATCC 29212 = type: cell-based, Enterococcus faecalis
Method: (§2) The test was conducted in triplicate.

HeLa cells = details: for IC50: 24 h
Method: We assessed the cytotoxicity of the compounds synthesized using HeLa cells.
The 3–4,5-dimethylthiazol-2,5-biphenyl tetrazolium bromide (MTT) cell viability assay was used to assess the cytotoxic activity of synthetic compounds against the human HeLa line. HeLa cells were seeded in 96-well plates at 1 × 10^5 cells/well, in which the peptide solution was added at different concentrations (3.125–400 μM) for 24 h of incubation. Next, MTT reagent (Sigma-Aldrich, St. Louis, MO, USA) was added, and the cells were incubated for 2 h. Then, 100 μL of dimethylsulfoxide (DMSO) was added to each well to dissolve formazan crystals, and the plates were read at 595 nm.

[2] = system: S. aureus RM * SA1 (Methicillin-resistant Staphylococcus aureus); details: S. aureus RM * SA1 (MRSA)
trypsin = details: after 7 h of treatment
Method: (§7) The enzymatic stability of the peptides and lipopeptides was determined by measuring residual antimicrobial activity using the agar diffusion method [42]. To this end, 60 µL of the peptide (treated and untreated) in phosphate buffer (0.1 mM pH: 5.5) was added to a 7 mm well on an agar plate previously seeded with 1 mL of a fresh culture of S. aureus ATCC 25923. The plates were incubated for between 18 and 24 h at 37 °C, and then the inhibition halo diameter was measured. The test was conducted in duplicate.

C. albicans PEEC 2 = type: cell-based, Candida albicans; details: PEEC 2, 24 h
Method: (§3) Each inoculum was taken and the cellular concentration was adjusted to 2 × 10^3 CFU/mL in Sabouraud Dextrose Broth (SDB) (Biokar Diagnostics, Cedex, France). Next, 50 µL of these inocula was added to 50 µL of peptide solution in serial 2-fold dilutions. […] […] The test was conducted in triplicate.

Human erythrocytes = experiment: Hemolysis assay; type: cell-based; details: human erythrocytes 0.4% (v/v), 37 °C, 60 min, 6.25 to 400 µM
Method: (§4) Hemolytic activity was determined using red blood cells and the hemoglobin released was measured at 405 nm. The percentage of hemolysis corresponding to the synthetic compounds is shown in Figure 1 while the HC50 values are provided in Table 3. […] Substitutions by N-methyl and D-amino acids reduced the hemolytic activity of the peptides and lipopeptides. […] For all the peptides and most of the lipopeptides, the HC50 values exceeded 400 μM. Indeed, the HC50 values were lower only for C10:0-A2(9-NMeLys) and C10:0-A2, which were around 300 and 200 μM, respectively.
(§5) Erythrocyte lysis was determined using the following previously optimized protocols. Human erythrocytes from a healthy voluntary donor were isolated by centrifugation (3000 rpm for 10 min) after washing three times with Physiological Solution (PS). Erythrocyte solutions were prepared at a concentration of 0.4% (v/v) in PS. Test tubes containing 200 µL of erythrocyte solution were incubated at 37 °C for 60 min with 200 µL of peptide solution at concentrations ranging from 6.25 to 400 µM. After centrifugation at 3000 rpm for 5 min, supernatant absorbance was measured at 405 nm. Lysis induced by 1% Triton X-100 was taken as a 100% reference value.

C. tropicalis DBFIQ 3 = type: cell-based, Candida tropicalis; details: DBFIQ 3, 24 h
Method: as §3

S. aureus ATCC 25923 = type: cell-based, Staphylococcus aureus
Method: as §2

P. aeruginosa ATCC 27853 = type: cell-based, Pseudomonas aeruginosa; details: ATCC 27853, 24 h
Method: as §2

Gram (+) bacteria = details: for MIC Average Bacteria Gram (+): average over Gram (+) strains; for TI Bacteria Gram (+), HC50/MIC average: first value of the cell, a single value holds for HC50 and IC50 (400 µM used); for TI Bacteria Gram (+), IC50/MIC average: second value of the cell, HeLa IC50 based
Method: (§6) The MIC against bacterial strains was determined by the modified broth microtiter dilution method, following the procedures proposed by R.E.W. Hancock Laboratory for testing antimicrobial peptides. The target strains Escherichia coli ATCC 35218, Pseudomonas aeruginosa ATCC 27853, Enterococcus faecalis ATCC 29212, and Staphylococcus aureus ATCC 25923 belong to the American Type Culture Collection (ATCC). The Methicillin-Resistant Staphylococcus aureus BSF FBCB1313 strain (MRSA) was provided by the Clinical Bacteriology Section of FBCB-UNL. All strains were activated by culture for 24 h at 37 °C in Mueller-Hinton Broth (MHB) (Biokar Diagnostics, Cedex, France). Each inoculum was taken and adjusted to a cellular concentration of 5 × 10^5 colony-forming units (CFU)/mL in diluted MHB. All the peptides were dissolved in bovine serum albumin buffer with the addition of 0.01% acetic acid; 100 µL of each inoculum was added to 11 µL of peptide solution in serial 2-fold dilutions and were incubated for 18–24 h at 37 °C. The MIC was the lowest peptide concentration that inhibited visible growth of each bacterial strain. The test was conducted in triplicate.
as §1

Gram (−) bacteria = details: for MIC Average Bacteria Gram (−): average over Gram (−) strains; for TI Bacteria Gram (−), HC50/MIC average: first value of the cell, a single value holds for HC50 and IC50 (400 µM used); for TI Bacteria Gram (−), IC50/MIC average: second value of the cell, HeLa IC50 based
Method: as §6, §1

E. coli ATCC 35218 = type: cell-based, Escherichia coli; details: ATCC 35218, 24 h
Method: as §2

Yeast [3] = details: cited from earlier work
[4] = Critical micelle concentration by conductimetry in Milli-Q water; type: physicochemical; details: 25 °C
Method: On the other hand, acylation confers that the peptide has capacity to self-assemble into nanostructures, resulting in a surfactant-like structure, which may affect the extent of peptide insertion and disruption of bacterial membrane integrity. In this work, the CMC of the lipopeptides was determined by conductimetry in Milli-Q water. All the lipopeptides adopted a micellar assembly with CMC values ranging from 2.0 to 5.7 mM (Table 1). […] This effect appeared to be more important when substitution by an N-methyl amino acid was performed on amino acids located on the non-polar face of the amphipathic helix (CMC values of C10:0-A2(8-NMePhe) = 2.01 mM). For all the lipopeptides, the CMC values remained above the MIC values, which could indicate that these molecules interact with the cell membrane as monomers and, consequently, that this property would not be necessary for antimicrobial activity. This notion is in concordance with reports in the literature on short cationic lipopeptides.
A lipopeptide solution was prepared in Milli Q water, and the specific conductivity of each lipopeptide solution, in a concentration ranging from 0.06 to 18 mg/mL, was measured using a drop conductivity meter (HORIBA, Kyoto, Japan), at 25 °C. Conductivity values were plotted vs. lipopeptide concentration (mS × cm^−1 vs. mg/mL), and the CMC was graphically determined.

in vitro = details: human, 50% (v/v) human serum in phosphate buffer, pH 7.2
Method: A 50% (v/v) human serum solution in phosphate buffer (pH: 7.2) was added to the peptide solution (concentration: 2 mg/mL) and incubated for 8 h at 37 °C. Aliquots were taken at different time points (0, 30, 60, 120, 240, 360, and 480 min) and serum proteins were immediately precipitated with a mixture of ACN-water-TFA (89:10:1). They were kept at 4 °C for 45 min and then centrifuged for 15 min at 10,000 rpm. The supernatants were then analyzed by HPLC-RP using a C18 analytical column (Beckman, Indianapolis, IN, USA). A linear gradient from 5% to 50% of ACN in H2O containing 0.1% TFA was used, at a flow rate of 0.8 mL/min. Absorbance was measured at 220 nm. […] The test was conducted in duplicate.

[5] = at 200 μM; cited from earlier work
Hemolysis assay = type: cell-based, human; details: human, erythrocytes (red blood cells); at higher concentrations (400 μM)
Method: as §4, §5

Method for chymotrypsin: as §7

Molecule: CCCCCCCCCC(=O)N[C@H](C(=O)N[C@H](CCCCN)C(=O)N[C@@H](CCC(N)=O)C(=O)N[C@H](C(=O)N[C@H](CCCCN)C(=O)N[C@H](CCCCN)C(=O)N[C@@H](CC(C)C)C(=O)N[C@@H](Cc1ccccc1)C(=O)N[C@H](CCCCN)C(=O)N[C@H](CCCCN)C(N)=O)C(C)C)[C@@H](C)CC [C10:0-A2(dK), C10:0-IdKQVdKdKLFdKdK-NH2] (Decanoyl-I[dK]QV[dK][dK]LF[dK][dK]-NH2)
- MIC Average Yeast (Yeast [1]): 135.9 µM (≈ 192 µg/mL)
- TI Yeast, HC50/MIC average (Yeast [1]): 2.9
- MIC (E. faecalis ATCC 29212; E. faecalis ATCC 29212): >90.6 µM
- IC50 (HeLa cells): > 400 µM
- MIC [2]: >90.6 µM
- retained inhibition activity against S. aureus strain ATCC 25923 (trypsin): 80%
- MIC (C. albicans PEEC 2): 90.6 µM (≈ 128 µg/mL)
- retained antimicrobial activity (chymotrypsin; after 3 h of treatment): 75%
- residual antimicrobial activity (chymotrypsin; after more than 3 h of treatment, in words): total loss of activity
- HC50 ± SD (Human erythrocytes): >400 µM
- MIC (C. tropicalis DBFIQ 3): 181.2 µM (≈ 256 µg/mL)
- MIC (S. aureus ATCC 25923; S. aureus ATCC 25923): >90.6 µM
- MIC (P. aeruginosa ATCC 27853): 1.6 µM (≈ 2.26 µg/mL)
- MIC Average Bacteria Gram (+) (Gram (+) bacteria): >90.6 µM
- TI Bacteria Gram (+), HC50/MIC average (Gram (+) bacteria): <4.4
- MIC Average Bacteria Gram (−) (Gram (−) bacteria): 12.1 µM (≈ 17.1 µg/mL)
- TI Bacteria Gram (−), HC50/MIC average (Gram (−) bacteria): 33.1
- MIC (E. coli ATCC 35218): 22.6 µM (≈ 31.9 µg/mL)

Molecule: CCCCCCCCCC(=O)N[C@H](C(=O)N[C@@H](CCCCN)C(=O)N[C@@H](CCC(N)=O)C(=O)N[C@H](C(=O)N[C@@H](CCCCN)C(=O)N[C@@H](CCCCN)C(=O)N[C@@H](CC(C)C)C(=O)N[C@@H](Cc1ccccc1)C(=O)N[C@@H](CCCCN)C(=O)N[C@@H](CCCCN)C(N)=O)C(C)C)[C@@H](C)CC [C10:0-A2, C10:0-IKQVKKLFKK-NH2] (Decanoyl-IKQVKKLFKK-NH2)
- MIC Average Yeast (Yeast [1]): 90.6 µM (≈ 128 µg/mL)
- TI Yeast, HC50/MIC average (Yeast [1]): 2.2
- TI Yeast, IC50/MIC average (Yeast [1]): 0.4
- MIC (E. faecalis ATCC 29212; ATCC 29212, 24 h): 1.4 µM (≈ 1.98 µg/mL)
- IC50 (HeLa cells): 32.6 ± 2.49 µM
- reduction of HeLa viability (HeLa cells; HeLa cells, MTT): more than 60%
- MIC (Yeast [3]; yeast): 90.6 µM (≈ 128 µg/mL)
- MIC [2]: 2.8 µM (≈ 3.96 µg/mL)
- CMC [4]: 5.74 mM
- MIC (C. albicans PEEC 2): 90.6 µM (≈ 128 µg/mL)
- remaining at 1 h (in vitro): ~20%
- hemolysis [5]: around 50%
- hemolysis at 60 min, 400 µM (Hemolysis assay): ~45%
- HC50 ± SD (Human erythrocytes): 202.9 ± 17.5 µM
- MIC (C. tropicalis DBFIQ 3): 90.6 µM (≈ 128 µg/mL)
- MIC (S. aureus ATCC 25923; ATCC 25923, 24 h): 1.4 µM (≈ 1.98 µg/mL)
- MIC (P. aeruginosa ATCC 27853): 1.4 µM (≈ 1.98 µg/mL)
- MIC Average Bacteria Gram (+) (Gram (+) bacteria): 1.9 µM (≈ 2.68 µg/mL)
- TI Bacteria Gram (+), HC50/MIC average (Gram (+) bacteria): 106.8
- TI Bacteria Gram (+), IC50/MIC average (Gram (+) bacteria): 17.2
- MIC Average Bacteria Gram (−) (Gram (−) bacteria): 1.4 µM (≈ 1.98 µg/mL)
- TI Bacteria Gram (−), HC50/MIC average (Gram (−) bacteria): 144.9
- TI Bacteria Gram (−), IC50/MIC average (Gram (−) bacteria): 23.3
- MIC (E. coli ATCC 35218): 1.4 µM (≈ 1.98 µg/mL)

Molecule: KLFKKLFKKLFK-NH2 [TA4, KLFKKLFKKLFK-NH2]
- MIC Average Yeast (Yeast [1]): 40.8 µM
- TI Yeast, HC50/MIC average (Yeast [1]): 9.8
- TI Yeast, IC50/MIC average (Yeast [1]): 1.1
- MIC (E. faecalis ATCC 29212; ATCC 29212, 24 h): 5.1 µM
- IC50 (HeLa cells): 46.4 ± 10.1 µM
- reduction of HeLa viability (HeLa cells; HeLa cells, MTT): more than 60%
- IC50 (HeLa cells; read-out: IC50 ± SD, HeLa cells, MTT, 3.125–400 μM): 46 µM
- MIC (Yeast [3]; against yeast): 40.8 µM
- MIC [2]: 10.2 µM
- MIC (C. albicans PEEC 2): 40.8 µM
- remaining at 1 h (in vitro): ~40%
- hemolysis [5]: around 40%
- hemolysis at 60 min, 400 µM (Hemolysis assay): ~65%
- HC50 ± SD (Human erythrocytes): >400 µM
- MIC (C. tropicalis DBFIQ 3): 40.8 µM
- MIC (S. aureus ATCC 25923; ATCC 25923, 24 h): 2.6 µM
- MIC (P. aeruginosa ATCC 27853): 2.6 µM
- MIC Average Bacteria Gram (+) (Gram (+) bacteria): 6.0 µM
- TI Bacteria Gram (+), HC50/MIC average (Gram (+) bacteria): 66.7
- TI Bacteria Gram (+), IC50/MIC average (Gram (+) bacteria): 7.7
- MIC Average Bacteria Gram (−) (Gram (−) bacteria): 3.9 µM
- TI Bacteria Gram (−), HC50/MIC average (Gram (−) bacteria): 102.6
- TI Bacteria Gram (−), IC50/MIC average (Gram (−) bacteria): 11.9
- MIC (E. coli ATCC 35218): 5.1 µM

Reference: publication PMC10215143, “D- and N-Methyl Amino Acids for Modulating the Therapeutic Properties of Antimicrobial Peptides and Lipopeptides” (Antibiotics, 2023)
